Reference: article PMC3914206

Target: T1, panel of 442 kinases (Homo sapiens, UniProt O15111)
T1 construct: purchased KINOMEscan
T1 sequence (O15111 1-745): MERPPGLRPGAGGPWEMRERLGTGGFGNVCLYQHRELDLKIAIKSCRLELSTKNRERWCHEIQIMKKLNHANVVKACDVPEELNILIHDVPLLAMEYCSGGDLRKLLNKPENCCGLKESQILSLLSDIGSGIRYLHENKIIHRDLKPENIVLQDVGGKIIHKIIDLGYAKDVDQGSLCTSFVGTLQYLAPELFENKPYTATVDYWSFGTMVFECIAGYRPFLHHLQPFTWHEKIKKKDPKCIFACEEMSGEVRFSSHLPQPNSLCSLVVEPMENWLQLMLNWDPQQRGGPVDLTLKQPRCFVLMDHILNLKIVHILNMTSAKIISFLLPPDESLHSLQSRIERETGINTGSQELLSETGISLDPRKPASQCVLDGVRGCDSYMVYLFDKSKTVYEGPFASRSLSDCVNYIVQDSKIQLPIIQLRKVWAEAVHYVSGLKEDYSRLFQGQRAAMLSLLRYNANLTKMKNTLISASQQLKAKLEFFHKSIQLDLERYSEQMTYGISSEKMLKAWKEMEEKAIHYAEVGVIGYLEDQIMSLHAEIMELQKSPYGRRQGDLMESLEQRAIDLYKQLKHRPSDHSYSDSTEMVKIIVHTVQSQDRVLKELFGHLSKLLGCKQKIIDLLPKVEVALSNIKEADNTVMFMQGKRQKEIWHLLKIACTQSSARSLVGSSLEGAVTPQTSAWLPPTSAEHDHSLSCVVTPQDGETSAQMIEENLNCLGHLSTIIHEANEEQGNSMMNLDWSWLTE
Assay type: binding
Conditions: Compound Concentration 10 µM
Text: We assessed the selectivity of members of this scaffold using the KINOMEscan methodology across a near comprehensive panel of 442 kinases [[18,27]].

Row | Structure (SMILES) | KINOMEscan: IKK-alpha
1 | COc1cc(C(=O)N2CCC(N3CCN(C)CC3)CC2)ccc1Nc1ncc2c(n1)N(C)c1ccccc1C(=O)N2C [15 (LRRK2-IN-1)] | 100
2 | COc1cc(C(=O)N2CCC(N3CCN(C)CC3)CC2)ccc1Nc1ncc2c(n1)N(C1CCCC1)c1ccccc1C(=O)N2C [Compound 25, 11-cyclopentyl-2-((2-methoxy-4-(4-(4-methylpiperazin-1-yl)piperidine-1-carbonyl)phenyl)amino)-5-methyl-5H-benzo[e]pyrimido[5,4-b][1,4]diazepin-6(11H)-one] | 100
3 | CCOc1cc(C(=O)N2CCC(N3CCN(C)CC3)CC2)ccc1Nc1ncc2c(n1)N(C1CCCC1)c1ccccc1C(=O)N2C [Compound 26] | 100
